Assays:
rat heart tissue = assay: GENECALLING differential gene expression analysis after dosing of serotonin modulating agents; assay type: in vivo, Sprague Dawley rats
Experimental: Control animals received sterile water or canola oil. The animals were sacrificed 24 hours following the last dose. Liver tissue was dissected from the animals, and total RNA was recovered from the dissected tissue. cDNA was prepared and the resulting samples were processed through using GENECALLING™ differential expression analysis as described in U.S. Pat. No. 5,871,697 and in Shimkets et al., Nature Biotechnology 17:798-803 (1999). The contents of these patents and publications are incorporated herein by reference in their entirety.
Thousands of gene fragments were initially found to be differentially expressed in rat heart tissue in response to serotonin modulating agents in. Genes fragments whose expression levels were modulated greater than ±1.5-fold were selected for further analysis.
Column 6 of Table 1, entitled “Function”, lists the type of classification assigned for the protein, based on its function. The 210 single nucleic acid sequences identified herein, are referred to herein as CARDIOTOX 1-210.

[1] = cited from earlier work

In the case of `CCN[C@@H](C)Cc1cccc(C(F)(F)F)c1` [dexfenfluramine], the “Effects on Transcription Level: Novel gene fragment, 445 bp, 85% SI to human skeletal muscle alpha 2 actinin [M86406]” value (rat heart tissue; CARDIOTOX 72) is reported as −1.7 fold, the “Effects on Transcription Level: Novel gene fragment, 246 bp, 89% SI to mouse ponsin-1 [AF078667]” value (rat heart tissue; CARDIOTOX 73) is reported as −3.1 fold and the “Effects on Transcription Level: Novel gene fragment, 126 bp, 77% SI to human DNA sequence from cosmid V311G7, between markers DXS366 and DXS87 on chromosome X [Z69304]” value (rat heart tissue; CARDIOTOX 74) is reported as “+2.0 fold”. For the same molecule, the “Effects on Transcription Level: Novel gene fragment, 370 bp” value (rat heart tissue; CARDIOTOX 75) was −2.6 fold, the “Effects on Transcription Level: Novel gene fragment, 337 bp, 78% SI to novel human protein AHNAK [M80899]” value (rat heart tissue; CARDIOTOX 76) was −4.2 fold and the “Effects on Transcription Level: Novel gene fragment, 100 bp, 93% SI to human KIAA0750 protein [ABO18293]” value (rat heart tissue; CARDIOTOX 77) was −7.5 fold. For the same molecule, the “Effects on Transcription Level: Novel gene fragment, 44 bp” value (rat heart tissue; CARDIOTOX 78) was −6.5 fold, the “Effects on Transcription Level: Novel gene fragment, 698 bp, 93% SI to mouse plenty-of-prolines-101 [AF062655]” value (rat heart tissue; CARDIOTOX 79) was −2.3 fold and the “Effects on Transcription Level: Novel gene fragment, 660 bp, 84% SI to mouse membrane protein TMS-2 [AF181685]” value (rat heart tissue; CARDIOTOX 80) was −3.6 fold. The “Effects on Transcription Level: Novel gene fragment, 115 bp” value (rat heart tissue; CARDIOTOX 81) was −4.0 fold, the “Effects on Transcription Level: Novel gene fragment, 294 bp, 95% SI to mouse Ndr1 related protein Ndr2 [AB033921]” value (rat heart tissue; CARDIOTOX 82) was −2.0 fold and the “Effects on Transcription Level: Novel gene fragment, 198 bp” value (rat heart tissue; CARDIOTOX 83) was “+2.5 fold”. For the same molecule, the “Effects on Transcription Level: Novel gene fragment, 730 bp, 86% SI to mouse E800 [Y10968]” value (rat heart tissue; CARDIOTOX 84) was −2.0 fold, the “Effects on Transcription Level: Novel gene fragment, 294 bp, 98% SI to cysteine conjugate beta-lyase [S61960]” value (rat heart tissue; CARDIOTOX 85) was −2.0 fold and the “Effects on Transcription Level: Aconitase” value (rat heart tissue; CARDIOTOX 86, GenBank A1243266) was −3.1 fold. The “Effects on Transcription Level: Ribosomal protein L7” value (rat heart tissue; CARDIOTOX 87, GenBank M17422) was “+2.5 fold”, the “Effects on Transcription Level: Ribosomal protein L9” value (rat heart tissue; CARDIOTOX 88, GenBank X51706) was “+10.0 fold” and the “Effects on Transcription Level: Ribosomal protein L12” value (rat heart tissue; CARDIOTOX 89, GenBank X53504) was −2.2 fold. The “Effects on Transcription Level: 18S, 5.8S, and 28S ribosomal RNA's” value (rat heart tissue; CARDIOTOX 90, GenBank V01270) was “+5 fold”, the “Effects on Transcription Level: Pyruvate dehydrogenase kinase 2 (PDK2)” value (rat heart tissue; CARDIOTOX 91, GenBank U10357) was −6.9 fold and the “Effects on Transcription Level: D-Binding Protein (DBP)” value (rat heart tissue; CARDIOTOX 92, GenBank J03179) was −1.9 fold. The “Effects on Transcription Level: Lipoprotein lipase” value (rat heart tissue; CARDIOTOX 93, GenBank L03294) was −2.2 fold, the “Effects on Transcription Level: Non-neuronal enolase” value (rat heart tissue; CARDIOTOX 94, GenBank X02610) was “+3.5 fold” and the “Effects on Transcription Level: Glycogen phosphorylase (muscle isozyme)” value (rat heart tissue; CARDIOTOX 95, GenBank L10669) was −2.0 fold. For the same molecule, the “Effects on Transcription Level: Cytochrome c oxidase subunit IV” value (rat heart tissue; CARDIOTOX 96, GenBank X14209) was “+10.0 fold”, the “Effects on Transcription Level: Alpha-globin” value (rat heart tissue; CARDIOTOX 97, GenBank M17083) was “+3.0 fold” and the “Effects on Transcription Level: Beta-globin” value (rat heart tissue; CARDIOTOX 98, GenBank X06701) was “+3.1 fold”. The “Effects on Transcription Level: Myoglobin” value (rat heart tissue; CARDIOTOX 99, GenBank AF197916) was “+4.7 fold”, the “Effects on Transcription Level: Titin” value (rat heart tissue; CARDIOTOX 100, GenBank L38717) was −2.0 fold and the “Effects on Transcription Level: Skeletal muscle actin” value (rat heart tissue; CARDIOTOX 101, GenBank V01218) was −18.2 fold. The “Effects on Transcription Level: Myosin light chain 2 (MLC2)” value (rat heart tissue; CARDIOTOX 102, GenBank M11851) was “+2.6 fold”, the “Effects on Transcription Level: Alpha cardiac myosin heavy chain” value (rat heart tissue; CARDIOTOX 103, GenBank X15938) was −3.4 fold and the “Effects on Transcription Level: Troponin I” value (rat heart tissue; CARDIOTOX 104, GenBank U77354) was “+1.8 fold”. For the same molecule, the “Effects on Transcription Level: Cardiac calsequestrin” value (rat heart tissue; CARDIOTOX 105, GenBank AF001334) was −2.9 fold, the “Effects on Transcription Level: Sulfated glycoprotein 2” value (rat heart tissue; CARDIOTOX 106, GenBank M16975) was −1.8 fold and the “Effects on Transcription Level: Aquaporin 7” value (rat heart tissue; CARDIOTOX 107, GenBank AB000507) was “+1.5 fold”. For the same molecule, the “Effects on Transcription Level: Carnitine/acylcarnitine carrier protein” value (rat heart tissue; CARDIOTOX 108, GenBank X97831) was −2.5 fold, the “Effects on Transcription Level: Glu-Pro Dipeptide Repeat” value (rat heart tissue; CARDIOTOX 109, GenBank U40628) was −5.0 fold and the “Effects on Transcription Level: Cystatin beta” value (rat heart tissue; CARDIOTOX 110, GenBank X54737) was “+2.5 fold”. The “Effects on Transcription Level: Novel gene fragment, 593 bp, 90% SI to human calcineurin B-like protein [Z08983]” value (rat heart tissue; CARDIOTOX 111) was “+1.9 fold”, the “Effects on Transcription Level: Novel gene fragment, 179 bp, 88% SI to human titin [X90568]” value (rat heart tissue; CARDIOTOX 112) was −3.1 fold and the “Effects on Transcription Level: Novel gene fragment, 700 bp, 91% SI to mouse periplakin (PPL) [AF116523]” value (rat heart tissue; CARDIOTOX 113) was “+2.5 fold”. For the same molecule, the “Effects on Transcription Level: Long chain acyl-CoA dehydrogenase (LCAD)” value (rat heart tissue; CARDIOTOX 114, GenBank J05029) was “+1.7 fold”, the “Effects on Transcription Level: Sulfated glycoprotein 1 (SGP-1)” value (rat heart tissue; CARDIOTOX 115, GenBank M19936) was −1.7 fold and the “Effects on Transcription Level: Catalase” value (rat heart tissue; CARDIOTOX 116, GenBank M11670) was “+2.1 fold”. For the same molecule, the “Effects on Transcription Level: Alpha-fodrin (A2A) (Nonerythroid spectrin alpha subunit)” value (rat heart tissue; CARDIOTOX 117, GenBank AF084186) was −1.7 fold, the “Effects on Transcription Level: Cardiac specific sodium channel alpha-subunit” value (rat heart tissue; CARDIOTOX 118, GenBank M27902) was −2.0 fold and the “Effects on Transcription Level: Glu-Pro Dipeptide Repeat” value (rat heart tissue; CARDIOTOX 119, GenBank U40628) was “+4.6 fold”. The “Effects on Transcription Level: Novel gene fragment, 200 bp, 64% SI to human KIAA0733 protein [AB018316]” value (rat heart tissue; CARDIOTOX 120) was −1.6 fold, the “Effects on Transcription Level: RNA polymerase II transcription factor SIII (p18 subunit)” value (rat heart tissue; CARDIOTOX 121, GenBank L42855) was “+2.0 fold” and the “Effects on Transcription Level: Protein-tyrosine phosphalase (LRP)” value (rat heart tissue; CARDIOTOX 122, GenBank L01702) was “+1.7 fold”. The “Effects on Transcription Level: Skeletal muscle selenoprotein W (SelW)” value (rat heart tissue; CARDIOTOX 123, GenBank U25264) was −1.6 fold, the “Effects on Transcription Level: Sarcoplasmic reticulum 2+-Ca-ATPase” value (rat heart tissue; CARDIOTOX 124, GenBank X15635) was −2.0 fold and the “Effects on Transcription Level: Ribosomal protein S7” value (rat heart tissue; CARDIOTOX 125, GenBank X53377) was “+1.7 fold”. For the same molecule, the “Effects on Transcription Level: Ribophorin I” value (rat heart tissue; CARDIOTOX 126, GenBank X05300) was “+2.0 fold”, the “Effects on Transcription Level: Beta cardiac myosin heavy chain” value (rat heart tissue; CARDIOTOX 127, GenBank X15939) was “+2.4 fold” and the “Effects on Transcription Level: ADP-ribosylation factor 1” value (rat heart tissue; CARDIOTOX 128, GenBank L12380) was “+1.1 fold”. For the same molecule, the “Effects on Transcription Level: Laminin receptor” value (rat heart tissue; CARDIOTOX 129, GenBank U04942) was “+2.6 fold”, the “Effects on Transcription Level: Novel gene fragment, 206 bp, 89% SI to human seryl-tRNA synthetase [X91257]” value (rat heart tissue; CARDIOTOX 130) was “+1.8 fold” and the “Effects on Transcription Level: Annexin VI” value (rat heart tissue; CARDIOTOX 131, GenBank X86086) was −10.0 fold. For the same molecule, the “Effects on Transcription Level: Novel gene fragment, 325 bp, 90% SI to mouse N-RAP [U76618]” value (rat heart tissue; CARDIOTOX 132) was “+1.7 fold”, the “Effects on Transcription Level: Novel gene fragment, 61 bp (CARDIOTOX 134)” value (rat heart tissue; LD10 dose for three days) was −1.8 fold and the “Effects on Transcription Level: Novel gene fragment, 337 bp (CARDIOTOX 133)” value (rat heart tissue; LD10 dose for three days) was −2.0 fold. The “Effects on Transcription Level: Novel gene fragment, 378 bp, 88% SI to human coatomer protein (COPA) [U24105] (CARDIOTOX 138)” value (rat heart tissue; LD10 dose for three days) was −2.0 fold, the “Effects on Transcription Level: Long chain 3-ketoacyl-CoA thiolase (CARDIOTOX 136)” value (rat heart tissue; LD10 dose for three days, GenBank D16479) was −1.5 fold and the “Effects on Transcription Level: TATA-binding protein interacting protein 120 (TIP120) (CARDIOTOX 135)” value (rat heart tissue; LD10 dose for three days, GenBank D87671) was “+2.3 fold”. For the same molecule, the “Effects on Transcription Level: Serine protease (CARDIOTOX 139)” value (rat heart tissue; LD10 dose for three days, GenBank D88250) was “+1.6 fold”, the “Effects on Transcription Level: Thymosin beta-4 (CARDIOTOX 137)” value (rat heart tissue; LD10 dose for three days, GenBank M34043) was “+1.4 fold” and the “Effects on Transcription Level: Annexin VI (no CARDIOTOX assignment given)” value (rat heart tissue; LD10 dose for three days, GenBank X86086) was −5.1 fold. For the same molecule, the “classification as cardiotoxic or noncardiotoxic serotonin modulating agent” value ([1]; grouping used to generate the distinguishing gene profiles) was “cardiotoxic” and the “side effect reported in a subset of patients” value ([1]; patients to which they are administered) was “valvular heart disease”.

— patent US20040005537A1, “Method of identifying toxic agents using differential gene expression” (priority 2000, published 2004)
